Patent publication US9206192B2, “Trolox derivative-modified fat-soluble anti-cancer pharmaceutical compounds, preparations, preparing methods and use thereof” (CHIA TAI TIANQING PHARMACEUTICAL GROUP CO., LTD, priority 2011, dated 2015)

Experiments:
Format in all cases: cell-based
[1] = system: colon cancer cells (HT-29); assay: In vitro cytotoxicity test, MTT assay, colon cancer cells; settings: Homo sapiens, 72 h incubation
Description: (§1) In this example, GI50 values (the concentration of a drug that inhibits the growth of cancer cells by 50%) of the novel anti-cancer pharmaceutical compounds of the present invention on the inhibition of human ovarian cancer cells (A2780s), colon cancer cells (HT-29), liver cancer HePG2 cells and lung cancer cells (A549) were determined by MTT assay, and further compared with that of anti-cancer drug irinotecan to evaluate in vitro cytotoxicity of the pharmaceutical compounds of the present invention.
(§2) MTT assay: Cells in logarithmic growth phase were seeded in 96-well culture plate at 100 μL/well and a cell density of 10^5/mL. After the cells were incubated for 18 h, the medium was replaced, and thereto the test compound samples with different concentrations were then added at 150 μL/well. The blank group was the wells to which only a RPMI 1640 culture medium comprising 10% fetal bovine serum was added without the addition of cells (for zero setting). The negative control group was the wells to which the equal volume of RPMI 1640 culture medium comprising 10% fetal bovine serum was added and the positive control group was the wells to which the equal volume of 13 μg/ml positive drug was added. Each group had three wells. […] After the crystal was completely dissolved, the absorbance (D) value of each well was detected on microplate reader at a wavelength of 490 nm. […]

[2] = system: human ovarian cancer cells (A2780s); assay: In vitro cytotoxicity test, MTT assay, ovarian cancer cells; settings: 72 h incubation, read-out: GI50 Ovarian cancer cell (A2780s)
Description: as §1
(§3) MTT assay: Cells in logarithmic growth phase were seeded in 96-well culture plate at 100 μL/well and a cell density of 10^5/mL. After the cells were incubated for 18 h, the medium was replaced, and thereto the test compound samples with different concentrations were then added at 150 μL/well. The blank group was the wells to which only a RPMI 1640 culture medium comprising 10% fetal bovine serum was added without the addition of cells (for zero setting). The negative control group was the wells to which the equal volume of RPMI 1640 culture medium comprising 10% fetal bovine serum was added and the positive control group was the wells to which the equal volume of 13 μg/ml positive drug was added. Each group had three wells. After the cells were incubated for 72 h, MTT (5 mg/mL) solution was added at 15 μL/well, and the cells were further incubated for 4 h. The supernatant was discarded, and DMSO was added at 150 μL/well. The mixture was shaken and blended for 10 min. After the crystal was completely dissolved, the absorbance (D) value of each well was detected on microplate reader at a wavelength of 490 nm. The cell growth inhibition rate was calculated according to the following equation: Cell growth inhibition rate=(1−average D value of test group/average D value of control group)×100%.

[3] = system: liver cancer HePG2 cells; assay: In vitro cytotoxicity test, MTT assay, liver cancer cells; settings: Homo sapiens, 72 h incubation, read-out: GI50 Live cancer cells (HePG2)
Description: as §1, §2

[4] = system: lung cancer cells (A549); assay: In vitro cytotoxicity test, MTT assay, lung cancer cells; settings: Homo sapiens, 72 h incubation
Description: as §1, §3

| Compound | GI50 [1] | GI50 [2] | GI50 [3] | GI50 [4] |
| --- | --- | --- | --- | --- |
| CCc1c2c(nc3ccc(OC(=O)N4CCC(N5CCCCC5)CC4)cc13)-c1cc3c(c(=O)n1C2)COC(=O)[C@]3(O)CC [Irinotecan, irinotecan, reference compound] | 15200 nM | 19300 nM | 9440 nM | 58.1 nM |
| CCCCCCOC(=O)[C@@]1(C)CCc2c(C)c(OC(=O)CCC(=O)Oc3ccc4nc5c(c(CC)c4c3)Cn3c-5cc4c(c3=O)COC(=O)[C@]4(O)CC)c(C)c(C)c2O1 [MXL-001, 7-ethyl-10-hydroxycamptothecin R-(+)-6-hydroxy-2,5,7,8-tetramethylchroman-2-carboxylic acid n-hexyl ester-6-succinate] |  | 40.9 nM |  | 4600 nM |
| CCCCCCCCCCCCOC(=O)[C@@]1(C)CCc2c(C)c(OC(=O)CCC(=O)Oc3ccc4nc5c(c(CC)c4c3)Cn3c-5cc4c(c3=O)COC(=O)[C@]4(O)CC)c(C)c(C)c2O1 [MXL-002, 7-ethyl-10-hydroxycamptothecin R-(+)-6-hydroxy-2,5,7,8-tetramethylchroman-2-carboxylic acid dodecyl ester-6-succinate] |  | 17.8 nM |  | 2100 nM |
| CCCCCCCCCCCCCCCCOC(=O)[C@@]1(C)CCc2c(C)c(OC(=O)CCC(=O)Oc3ccc4nc5c(c(CC)c4c3)Cn3c-5cc4c(c3=O)COC(=O)[C@]4(O)CC)c(C)c(C)c2O1 [MXL-003, 7-ethyl-10-hydroxycamptothecin R-(+)-6-hydroxy-2,5,7,8-tetramethylchroman-2-carboxylic acid hexadecyl ester-6-succinate] | 45 nM | 16.9 nM | 164 nM | 169 nM |
